“Also recorded” adds a separate entry of the source. Read-outs that look alike come from different tables or passages of the source.
What was measured:
PARP1 [1] = biological target: T1, PARP1 (Homo sapiens, UniProt P09874); conditions: purified enzyme assays, background values; cited from earlier work
[2] = mouse models, cited from earlier work
[3] = humans, eight subjects with cancer and eight healthy volunteers; cited from earlier work
[4] = Shelf stability in PBS (10% EtOH); assay type: physicochemical
PARP1 [5] = biological target: T2, PARP1 (Mus musculus, UniProt P11103); experiment: In vivo whole body biodistribution and blocking by small animal PET/CT
T2 construct: from tissue; host or cells: Lymphoid tissue and liver of a living nude female mouse
T2 sequence (P11103 whole entry): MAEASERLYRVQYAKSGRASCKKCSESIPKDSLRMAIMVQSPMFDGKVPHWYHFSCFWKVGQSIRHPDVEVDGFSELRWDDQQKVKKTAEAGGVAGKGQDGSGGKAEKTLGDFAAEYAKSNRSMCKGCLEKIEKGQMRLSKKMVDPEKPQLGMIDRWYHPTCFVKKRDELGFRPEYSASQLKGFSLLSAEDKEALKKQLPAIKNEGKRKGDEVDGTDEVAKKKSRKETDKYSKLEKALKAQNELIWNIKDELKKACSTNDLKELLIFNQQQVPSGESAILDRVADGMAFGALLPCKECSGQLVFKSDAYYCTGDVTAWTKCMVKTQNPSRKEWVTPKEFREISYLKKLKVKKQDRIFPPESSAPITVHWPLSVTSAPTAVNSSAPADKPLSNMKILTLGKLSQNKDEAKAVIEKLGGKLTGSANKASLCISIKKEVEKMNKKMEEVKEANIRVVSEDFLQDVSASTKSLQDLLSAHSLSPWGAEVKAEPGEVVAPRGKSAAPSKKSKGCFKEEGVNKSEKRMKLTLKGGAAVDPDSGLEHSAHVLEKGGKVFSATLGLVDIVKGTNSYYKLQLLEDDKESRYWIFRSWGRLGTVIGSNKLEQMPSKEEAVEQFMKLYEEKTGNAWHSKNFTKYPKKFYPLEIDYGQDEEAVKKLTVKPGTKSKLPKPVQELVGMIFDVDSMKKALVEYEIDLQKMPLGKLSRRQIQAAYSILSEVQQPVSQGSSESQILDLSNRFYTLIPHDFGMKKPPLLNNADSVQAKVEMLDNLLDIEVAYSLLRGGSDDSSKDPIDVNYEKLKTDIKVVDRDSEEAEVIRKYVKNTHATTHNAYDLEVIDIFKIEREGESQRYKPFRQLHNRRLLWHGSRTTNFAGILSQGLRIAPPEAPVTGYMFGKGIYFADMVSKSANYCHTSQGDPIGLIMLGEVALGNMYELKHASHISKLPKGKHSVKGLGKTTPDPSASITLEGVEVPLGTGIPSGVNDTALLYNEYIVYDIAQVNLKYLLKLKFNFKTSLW
Procedure: Preliminary PET images were acquired for 10 min using a 15 cm field of view (FOV); CT images were acquired for fusion using a 7 cm FOV and automatically “stitched” and fused to the PET imaging in the reconstruction software (Albira Suite, Bruker). […] Image data were decay corrected to injection time (Albira, Bruker) and expressed as % ID/cc or SUV as indicated (PMOD, PMOD Technologies). Actual injected dose was calculated based on measuring the pre- and post-injection activity in the syringe with a dose calibrator (Capintec) and mice were individually weighed to calculate individual standardized uptake values (SUV).
In vivo whole body biodistribution and blocking experiments were performed using a small animal PET/CT scanner after the injection of ^18F-Talazoparib (˜100 μCi) in a nude female mouse; images were acquired two hours post injection and decay corrected to the injection time.

MCF-7 empty vector cells = experiment: Cellular uptake of ^18F-Talazoparib, MCF-7 empty vector cells; assay type: cell-based
Procedure: (§1) All experiments were performed in quadruplicate in a 24 well plate format. […] Experiment that abrogated metabolism were performed at 4° C., a temperature at which cellular membranes become less fluid and permeability is low. After 120 min, an aliquot of the cell media (200 μl) was obtained for gamma counting, the remaining media removed, and cells washed with MEBSS. Cells were then lysed with 1% SDS, 10 mM sodium borate for 30 min at room temperature. […] Protein contents were quantified using BCA protein assay kit (Thermos Scientific) according to the manufacture's protocol using bovine serum albumin (BSA) as the protein standard.

[6] = tested on: MCF-7 cells stably transfected with MDR1 P-glycoprotein (Pgp); experiment: Cellular uptake of ^18F-Talazoparib, MCF-7 cells expressing MDR1 Pgp
Procedure: as §1

[7] = Stability in full human plasma at 37° C.; assay type: in vitro ADME
PARP1 [8] = biological target: T1, PARP1; experiment: PARP1 apoptosis assay kit (Trevigen), inhibition of purified PARP1 enzyme activity; assay type: biochemical; conditions: racemic mixture, three replicates per concentration

T1 sequence (P09874 whole entry): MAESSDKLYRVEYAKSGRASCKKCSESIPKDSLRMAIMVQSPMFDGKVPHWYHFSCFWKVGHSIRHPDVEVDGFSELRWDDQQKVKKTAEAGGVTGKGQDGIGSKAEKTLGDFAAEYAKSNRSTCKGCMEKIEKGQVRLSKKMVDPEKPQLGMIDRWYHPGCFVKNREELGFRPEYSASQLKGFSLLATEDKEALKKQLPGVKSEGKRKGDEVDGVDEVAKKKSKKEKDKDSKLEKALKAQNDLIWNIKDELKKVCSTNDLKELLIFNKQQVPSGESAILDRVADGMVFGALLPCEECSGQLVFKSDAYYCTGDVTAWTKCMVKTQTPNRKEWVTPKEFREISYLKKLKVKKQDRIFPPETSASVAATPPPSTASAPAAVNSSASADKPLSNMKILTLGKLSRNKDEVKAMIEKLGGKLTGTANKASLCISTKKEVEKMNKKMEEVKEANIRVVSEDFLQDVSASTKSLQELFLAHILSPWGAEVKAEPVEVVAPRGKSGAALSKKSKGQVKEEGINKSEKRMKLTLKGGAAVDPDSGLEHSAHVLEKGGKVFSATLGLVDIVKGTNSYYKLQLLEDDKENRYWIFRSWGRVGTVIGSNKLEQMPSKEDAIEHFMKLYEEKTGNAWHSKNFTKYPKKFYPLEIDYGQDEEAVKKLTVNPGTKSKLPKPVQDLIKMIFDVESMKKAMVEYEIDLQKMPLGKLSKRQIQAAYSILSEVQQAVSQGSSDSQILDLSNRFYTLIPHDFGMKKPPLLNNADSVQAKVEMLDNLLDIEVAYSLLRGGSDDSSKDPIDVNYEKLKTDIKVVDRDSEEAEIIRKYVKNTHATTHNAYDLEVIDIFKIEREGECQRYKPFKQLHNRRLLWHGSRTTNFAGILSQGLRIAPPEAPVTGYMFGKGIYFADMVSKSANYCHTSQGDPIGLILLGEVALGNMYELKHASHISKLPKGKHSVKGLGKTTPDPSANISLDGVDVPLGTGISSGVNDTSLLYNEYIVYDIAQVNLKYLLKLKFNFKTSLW

**Q.** Which IC50 (PARP1 [1]) does the source give for `O=C1NCCn2c(-c3ccc(OCCF)cc3)nc3cccc1c32` [^18F-FTT] here?
**A.** 6.3 nM

**Q.** What does the source list for `O=C1NCCn2c(-c3ccc(OCC[18F])cc3)nc3cccc1c32` [^18F-FTT]?
**A.** intact parent molecule observed in the blood ([2]; after 5 minutes): 55%; intact parent molecule observed in the blood ([2]; after 30 min): 13%; organ uptake on PET imaging [3]: high uptake in spleen, pancreas, and liver

**Q.** Which results are given for `Cn1ncnc1C1c2n[nH]c(=O)c3cc([18F])cc(c23)NC1c1ccc(F)cc1` (stereo not drawn) [^18F-Talazoparib, 5-[^18F]fluoro-8-(4-fluorophenyl)-9-(1-methyl·1H·1,2,4-triazol-5-yl)-2,7,8,9-tetrahydro-3H-pyrido[4,3,2-de]phthalazin-3-one]?
**A.** shelf stability [4]: up to 4 h; blocking of lymphoid tissue and liver uptake by cold Talazoparib (PARP1 [5]; 0.3 mg/kg cold Talazoparib IV 60 minutes before tracer): could be blocked by excess cold Talazoparib; also recorded: blockade of target engagement of PARP1; excretion pathway (PARP1 [5]; 2 hr static images, vehicle-treated nude mice): mixed excretion pathway (renal and hepatobiliary clearance); tissue uptake on PET images (PARP1 [5]; nude female mouse, ~100 μCi, two hours post injection): uptake in the lymphoid tissue (LT) located at the base of the neck, in the liver (L), and in excretory organs, such as bladder and intestine; cell uptake in presence of excess non-radioactive Talazoparib (MCF-7 empty vector cells; 37° C., 100 nM non-radioactive Talazoparib preincubated 30 min): completely blocked; cell uptake of tracer (MCF-7 empty vector cells; 120 min incubation at 37° C., compared to 4° C.): high uptake of the tracer compared to cells incubated at 4 °C; effect of MDR inhibitors on cell uptake (MCF-7 empty vector cells; LY-335979 or CP-100356 preincubated 30 min): no effect; MDR1 Pgp transport substrate [6]: recognized as a transport substrate by MDR1 Pgp; basal retention at 4° C. ([6]; MDR1 Pgp expressed, 4° C.): further reduced; net retention of tracer ([6]; MDR1 Pgp expressed, 37° C., 120 min): drastic decrease in the net retention; basal retention with excess cold Talazoparib ([6]; MDR1 Pgp expressed, excess cold Talazoparib): fully displaced; cellular retention with Pgp-mediated efflux inhibited ([6]; MDR1 Pgp expressed, with LY or CP): increased back to levels compared to MCF-7 cells lacking MDR1 Pgp; stable in full human plasma [7]: up to 4 h

**Q.** With “methyl 2-(4-bromophenyl)-7-fluoro-3-(1-methyl-1H-1,2,4-triazol-5-yl)-4-oxo-1,2,3,4-tetrahydroquinoline-5-carboxylate [Compound 1]” as the compound, how does the IC50 (PARP1 [8]) read?
**A.** 2.33 nM
